Values quoted from earlier work as cited in patent US12247053B2 (priority 2018, dated 2025).

Tested on: American isolates of H3N2

Compound | measured resistance
CC(N)C12CC3CC(CC(C3)C1)C2 (centres unmarked) [rimantadine] | 91%
NC12CC3CC(CC(C3)C1)C2 [amantadine] | 91%
